# Values joined by “and” are separate entries in the source; they are usually repeats but may differ in a detail not shown here. Equal entries are not always repeated. “Also recorded” adds a separate entry of the source. Marks after values point to notes of the source that are not given here.
# What was measured:
# [1] = tested on: CQ-resistant Pf Dd2 strain; assay: In vitro antiplasmodial activity, SYBR green I fluorescence, Dd2 strain; assay type: cell-based, Plasmodium falciparum; conditions: for activity against the Dd2 strain: aminoquinolines without the arylvinyl group; for resistance index (RI): RI = Dd2 EC50/3D7 EC50; for EC50: read-out: EC50 against the Dd2 strain, CQ-resistant Pf Dd2, 72 h incubation
# P. berghei ANKA 676m1cl1 = assay: Assessment of the curative property; assay type: in vivo, BALB/c female mice
# [2] = tested on: P. berghei ANKA strain expressing luciferase; assay: In vivo antimalarial activity: elimination of existing infection; parameters: species or system Swiss-Webster female mice; conditions: 25 mg/kg daily p.o., monophosphate salts, treatment from 48 h post infection
# [3] = tested on: β-hematin crystal formation; assay: β-Hematin formation inhibition; assay type: biochemical; conditions: 100 μM hemin, 16 h, 37 °C, highest concentration tested 200 μM
# malaria infection = conditions: cited from earlier work
# [4] = tested on: synchronized P. falciparum Dd2 cultures; assay: Stage-specific action; assay type: cell-based, Plasmodium falciparum; conditions: for stage-specific action on cell cycle progression: 5 × EC50 (DHA 50 nM, atovaquone 6.6 nM) added at 6, 18, 30, 42 HPI
# [5] = mouse liver microsomes, 15, 30 and 60 min, tentative assignment
# [6] = mouse liver microsomes; values reported from the initial study ref 33; cited from earlier work
# [7] = tested on: P. falciparum Dd2 cultures; assay: Transmission electron microscopy of treated parasites; assay type: cell-based, Plasmodium falciparum; conditions: 5 × EC50 for 1.5, 3, 6 or 12 h
# HepG2 cells = assay: In vitro cytotoxicity assay; assay type: cell-based, human; conditions: for selectivity index (SI): SI = HepG2 EC50/Dd2 EC50
# CQ-sensitive 3D7 strain = assay: In vitro antiplasmodial activity, SYBR green I fluorescence, 3D7 strain; assay type: cell-based, Plasmodium falciparum
compound,measurement,setting,value
"COc1ccc2nc(C)cc(NCCN(C)C)c2c1 [6a, N^1-(6-Methoxy-2-methylquinolin-4-yl)-N^2,N^2-dimethylethane-1,2-diamine]",activity against the Dd2 strain,[1],inactive
"Cc1cc(NCCN(C)C)c2cc(Cl)ccc2n1 [6c, N^1-(6-Chloro-2-methylquinolin-4-yl)-N^2,N^2-dimethylethane-1,2-diamine]",activity against the Dd2 strain,[1],inactive
"Cc1cc(NCCCCN(C)C)c2cc(Cl)ccc2n1 [6e, N^1-(6-Chloro-2-methylquinolin-4-yl)-N^4,N^4-dimethylbutane-1,4-diamine]",activity against the Dd2 strain,[1],inactive
"CN(C)CCNc1cc(/C=C/c2ccc(C(F)(F)F)cc2)nc2ccc(Cl)cc12.O=P(O)(O)O [24s, (E)-N^1-(6-Chloro-2-(4-(trifluoromethyl)styryl)quinolin-4-yl)-N^2,N^2-dimethylethane-1,2-diamine Monophosphate Salt]",mice cured (no parasites in blood smears / 100% reduction of parasitemia),P. berghei ANKA 676m1cl1; 100 mg/kg p.o. once daily for 4 days,no parasites were detected and 5/5
same,body weight change,P. berghei ANKA 676m1cl1; 25 and 100 mg/kg p.o.,no significant weight loss
same,tolerability / signs of toxicity,P. berghei ANKA 676m1cl1; 25 and 100 mg/kg p.o.,well tolerated; also recorded: no apparent signs of toxicity
same,effect on malaria infection (bioluminescence day 7),[2],full protection and cure
"CN(C)CCNc1cc(/C=C/c2ccc(F)cc2)nc2ccc(Cl)cc12.O=P(O)(O)O [29s, (E)-N^1-(6-Chloro-2-(4-fluorostyryl)quinolin-4-yl)-N^2,N^2-dimethylethane-1,2-diamine Monophosphate Salt]",effect on malaria infection (bioluminescence day 7),[2],effectively cleared the parasites
"CN1CCN(CCNc2cc(/C=C/c3ccc(F)cc3)nc3ccc(Cl)cc23)CC1.O=P(O)(O)O [86s, (E)-6-Chloro-2-(4-fluorostyryl)-N-(2-(4-methylpiperazin-1-yl)-ethyl)quinolin-4-amine Monophosphate Salt]",effect on malaria infection (bioluminescence day 7),[2],ineffective
"CCN(CC)CCCC(C)Nc1ccnc2cc(Cl)ccc12 (stereo not drawn) [CQ, chloroquine, reference compound]",inhibition of β-hematin formation,[3],strongly inhibited β-hematin formation
same,mean survival time (MSD),malaria infection; 30 mg/kg ref 61,24 days
"C[C@H]1[C@@H](O)O[C@@H]2O[C@@]3(C)CC[C@H]4[C@H](C)CC[C@@H]1[C@@]24OO3 [DHA, dihydroartemisinin, reference compound]",stage-specific action on cell cycle progression,[4],inhibition of all stages
CCN(CC)CCCC(C)Nc1cc(/C=C/c2ccc([N+](=O)[O-])cc2)nc2ccc(OC)cc12 (stereo not drawn) [UCF501],metabolites / metabolic pathway identified by LC–MS,[5],"N-deethylation of the tertiary amine (monodeethyl UCF501 and UCF501-M1), O-demethylation (UCF501-M2), oxidation of styrylquinoline (UCF501-M3), and the reduction of the nitro group"
same,% remaining after 60 min,[6],47.8^a %
same,mice cured of malaria infection,malaria infection; 100 mg/kg twice daily p.o. ref 33,4/5
"O=C1C(O)=C([C@H]2CC[C@H](c3ccc(Cl)cc3)CC2)C(=O)c2ccccc21 [atovaquone, reference compound]",stage-specific action on cell cycle progression,[4],no inhibition in late stages
"COc1ccc2nc(/C=C/c3ccccc3)cc(NCCN(C)C)c2c1 [compound 8, (E)-N^1-(6-Methoxy-2-styrylquinolin-4-yl)-N^2,N^2-dimethylethane-1,2-diaminei]",resistance index (RI),[1],≥ 1.5
"COc1ccc2nc(/C=C/c3ccc(OC)c(OC)c3)cc(NCCN(C)C)c2c1 [compound 13, (E)-N^1-(2-(3,4-Dimethoxystyryl)-6-methoxyquinolin-4-yl)-N^2,N^2-dimethylethane-1,2-diamine]",resistance index (RI),[1],≥ 1.5
"COc1ccc2nc(/C=C/c3cc(OC)c(OC)c(OC)c3)cc(NCCN(C)C)c2c1 [compound 14, (E)-N^1-(6-Methoxy-2-(3,4,5-trimethoxystyryl)quinolin-4-yl)-N^2,N^2-dimethylethane-1,2-diamine]",resistance index (RI),[1],≥ 1.5
"COc1ccc(/C=C/c2cc(NCCN(C)C)c3cc(F)ccc3n2)cc1OC [compound 20, (E)-N^1-(2-(3,4-Dimethoxystyryl)-6-fluoroquinolin-4-yl)-N^2,N^2-dimethylethane-1,2-diamine]",fold improved activity compared to compound 13,[1]; Dd2,approximately 4.5 fold
"CN(C)CCNc1cc(/C=C/c2ccc(C(F)(F)F)cc2)nc2ccc(Cl)cc12 [compound 24, (E)-N^1-(6-Chloro-2-(4-(trifluoromethyl)styryl)quinolin-4-yl)-N^2,N^2-dimethylethane-1,2-diamine]",ultrastructural effect (TEM),[7],appearance of membrane-bound structures within the parasite DV
same,stage-specific action on cell cycle progression,[4],"blocked when the compound was added at 6, 18, and 30 HPI"
same,effect on cell cycle when added at 42 HPI,"[4]; 5 × EC50, added at 42 HPI",did not affect the schizont maturation or the reinvasion of new merozoites
same,selectivity index (SI),HepG2 cells,> 1000
same,metabolites / metabolic pathway identified by LC–MS,[5],N-demethylation was the primary metabolic route
same,inhibition of β-hematin formation,[3],very low activity against β-hematin crystal formation; also recorded: weaker inhibitory activity toward β-hematin formation as compared with CQ
"CN(C)CCNc1cc(/C=C/c2ccc(N(C)C)cc2)nc2ccc(Cl)cc12 [compound 28, (E)-N^1-(6-Chloro-2-(4-(dimethylamino)styryl)quinolin-4-yl)-N^2,N^2-dimethylethane-1,2-diamine]",resistance index (RI),[1],1.3
"CN(C)CCNc1cc(/C=C/c2ccc(F)cc2)nc2ccc(Cl)cc12 [compound 29, (E)-N^1-(6-Chloro-2-(4-fluorostyryl)quinolin-4-yl)-N^2,N^2-dimethylethane-1,2-diamine]",stage-specific action on cell cycle progression,[4],stage-specific action at the late trophozoite phase
same,selectivity index (SI),HepG2 cells,> 1000
same,metabolites / metabolic pathway identified by LC–MS,[5],"monodemethylated (29-M1), bi-demethylated (29-M2), and oxidized products (29-M3)"
same,inhibition of β-hematin formation,[3],showed inhibitory activity toward β-hematin formation in a concentration-dependent manner
"COc1ccc2nc(/C=C/c3ccncc3)cc(NCCN(C)C)c2c1 [compound 41, (E)-N^1-(6-Methoxy-2-(2-(pyridin-4-yl)vinyl)quinolin-4-yl)-N^2,N^2-dimethylethane-1,2-diamine]",fold activity difference versus 2-pyridyl isomer 42,[1]; Dd2,up to 30 fold
"CN(C)CCNc1cc(/C=C/c2ccncc2)nc2ccc(Cl)cc12 [compound 50, (E)-N^1-(6-Chloro-2-(2-(pyridin-4-yl)vinyl)quinolin-4-yl)-N^2,N^2-dimethylethane-1,2-diamine]",resistance index (RI),[1],< 1
"CN1CCN(CCNc2cc(/C=C/c3ccc(F)cc3)nc3ccc(Cl)cc23)CC1 [compound 86, (E)-6-Chloro-2-(4-fluorostyryl)-N-(2-(4-methylpiperazin-1-yl)-ethyl)quinolin-4-amine]",stage-specific action on cell cycle progression,[4],stage-specific action at the late trophozoite phase
same,metabolites / metabolic pathway identified by LC–MS,[5],Demethylated (86-M1) and oxidized products (86-M2)
same,inhibition of β-hematin formation,[3],showed inhibitory activity toward β-hematin formation in a concentration-dependent manner
same,fold more potent than analogue 95,[1]; Dd2,~2.5 fold
"Fc1ccc(/C=C/c2cc(NCCCCN3CCOCC3)c3cc(Cl)ccc3n2)cc1 [compound 92, (E)-6-Chloro-2-(4-fluorostyryl)-N-(4-morpholinobutyl)quinolin-4-amine]",fold increase in cytotoxicity relative to compound 81,HepG2 cells; HepG2,4.8 fold
same,selectivity index (SI),HepG2 cells,> 1000
same,metabolites / metabolic pathway identified by LC–MS,[5],breakage of the morpholine ring
same,fold increase in inhibitory activity relative to compound 81,CQ-sensitive 3D7 strain,~6 fold
same,fold improved potency compared with counterpart 81,[1]; Dd2,~2 fold
"Clc1ccc2nc(/C=C/c3ccncc3)cc(NCCCCN3CCOCC3)c2c1 [compound 93, (E)-6-Chloro-N-(4-morpholinobutyl)-2-(2-(pyridin-4-yl)vinyl)-quinolin-4-amine]",metabolites / metabolic pathway identified by LC–MS,[5],breakage of the morpholine ring
same,fold improved potency compared with counterpart 82,[1]; Dd2,~13 fold
same,EC50,[1],≤ 15 nM
"FC(F)(F)c1ccc(/C=C/c2cc(NCCCCN3CCOCC3)c3cc(Cl)ccc3n2)cc1 [compound 98, (E)-6-Chloro-N-(4-morpholinobutyl)-2-(4-(trifluoromethyl)-Styryl)quinolin-4-amine]",metabolites / metabolic pathway identified by LC–MS,[5],breakage of the morpholine ring
"Fc1ccc(/C=C/c2cc(NCCCCN3CCOCC3)c3cc(Cl)ccc3n2)c(F)c1 [compound 104, (E)-6-Chloro-2-(2,4-difluorostyryl)-N-(4-morpholinobutyl)-quinolin-4-amine]",fold more active than 103,[1]; Dd2,~2.5 fold
"Fc1ccc(/C=C/c2cc(NCCCCN3CCOCC3)c3cc(Cl)ccc3n2)cc1F [compound 105, (E)-6-Chloro-2-(3,4-difluorostyryl)-N-(4-morpholinobutyl)-quinolin-4-amine]",metabolites / metabolic pathway identified by LC–MS,[5],breakage of the morpholine ring
same,fold more active than 103,[1]; Dd2,~7 fold
"Fc1cnccc1/C=C/c1cc(NCCCCN2CCOCC2)c2cc(Cl)ccc2n1 [compound 109, (E)-6-Chloro-2-(2-(3-fluoropyridin-4-yl)vinyl)-N-(4-morpholinobutyl)quinolin-4-amine]",fold less active than counterpart 93,[1]; Dd2,~7.5 fold
(E)-4-(6-Chloro-2-(4-isocyanostyryl)quinolin-4-yl)morpholine [compound 64],EC50,[1],> 1000 nM

# — publication PMC7605213 (Journal of medicinal chemistry, 2020)
